Earlier results on one compound are cited in patent US8759329B2 (Unimed Pharmaceuticals, LLC, priority 2005, dated 2014).

Data set [1] concerns protein (SHBG, albumin). The note with it: circulating testosterone.
The target of data set [2] is protein (SHBG, albumin) (Homo sapiens, UniProt P02768). The note with it: in men.
Data set [3] has as its target T1, protein (SHBG, albumin) (Homo sapiens, UniProt P04278).
T1 sequence (P04278 30-402): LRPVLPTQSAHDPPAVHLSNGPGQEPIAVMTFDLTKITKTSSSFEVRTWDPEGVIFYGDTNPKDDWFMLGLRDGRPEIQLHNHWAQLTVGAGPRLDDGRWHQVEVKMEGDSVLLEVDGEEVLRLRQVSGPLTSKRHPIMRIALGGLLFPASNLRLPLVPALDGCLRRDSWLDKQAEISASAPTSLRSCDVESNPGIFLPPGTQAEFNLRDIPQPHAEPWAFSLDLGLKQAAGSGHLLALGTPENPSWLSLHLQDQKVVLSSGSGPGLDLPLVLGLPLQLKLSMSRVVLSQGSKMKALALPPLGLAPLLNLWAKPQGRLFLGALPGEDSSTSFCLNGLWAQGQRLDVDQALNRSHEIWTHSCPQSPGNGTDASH
The note with it: in men.

Sequence of protein (SHBG, albumin) (Homo sapiens, UniProt P02768) (P02768 25-609): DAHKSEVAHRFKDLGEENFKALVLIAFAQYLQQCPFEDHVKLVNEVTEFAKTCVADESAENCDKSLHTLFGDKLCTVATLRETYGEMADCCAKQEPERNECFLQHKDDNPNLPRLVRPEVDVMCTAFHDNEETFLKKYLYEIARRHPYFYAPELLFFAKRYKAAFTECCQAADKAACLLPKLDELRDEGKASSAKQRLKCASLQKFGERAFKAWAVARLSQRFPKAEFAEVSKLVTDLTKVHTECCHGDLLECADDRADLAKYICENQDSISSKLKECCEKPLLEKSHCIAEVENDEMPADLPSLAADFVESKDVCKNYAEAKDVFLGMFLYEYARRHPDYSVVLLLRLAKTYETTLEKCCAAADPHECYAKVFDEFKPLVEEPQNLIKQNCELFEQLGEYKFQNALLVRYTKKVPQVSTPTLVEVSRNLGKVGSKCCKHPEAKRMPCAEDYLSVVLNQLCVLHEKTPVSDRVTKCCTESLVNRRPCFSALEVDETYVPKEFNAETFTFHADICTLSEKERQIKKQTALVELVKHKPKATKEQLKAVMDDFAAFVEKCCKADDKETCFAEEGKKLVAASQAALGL

Take `C[C@]12CC[C@H]3[C@@H](CCC4=CC(=O)CC[C@@]43C)[C@@H]1CC[C@@H]2O` [testosterone]: the “bound to protein in the blood” value in the data set with protein (SHBG, albumin) [1] is on record as 98%. In addition, at protein (SHBG, albumin) [2], the “share bound weakly to albumin” value is on record as 60%. Also, the “share of the binding to SHBG” value at protein (SHBG, albumin) [3] is on record as “approximately 40%”.
